Measurements as given in ChEMBL document CHEMBL3085700 (J Med Chem, 2013).
Calls of active or inactive are those of the source. The rule behind the calls is not given here.

Tests used:
[1] = target: T1, Prostaglandin G/H synthase 2 (Homo sapiens) (UniProt P35354); assay: Inhibition of human recombinant COX-2 using arachidonic acid as substrate assessed as oxygen consumption at 30 to 100 uM measured within 10 to 50 secs relative to control
T1 sequence (whole entry): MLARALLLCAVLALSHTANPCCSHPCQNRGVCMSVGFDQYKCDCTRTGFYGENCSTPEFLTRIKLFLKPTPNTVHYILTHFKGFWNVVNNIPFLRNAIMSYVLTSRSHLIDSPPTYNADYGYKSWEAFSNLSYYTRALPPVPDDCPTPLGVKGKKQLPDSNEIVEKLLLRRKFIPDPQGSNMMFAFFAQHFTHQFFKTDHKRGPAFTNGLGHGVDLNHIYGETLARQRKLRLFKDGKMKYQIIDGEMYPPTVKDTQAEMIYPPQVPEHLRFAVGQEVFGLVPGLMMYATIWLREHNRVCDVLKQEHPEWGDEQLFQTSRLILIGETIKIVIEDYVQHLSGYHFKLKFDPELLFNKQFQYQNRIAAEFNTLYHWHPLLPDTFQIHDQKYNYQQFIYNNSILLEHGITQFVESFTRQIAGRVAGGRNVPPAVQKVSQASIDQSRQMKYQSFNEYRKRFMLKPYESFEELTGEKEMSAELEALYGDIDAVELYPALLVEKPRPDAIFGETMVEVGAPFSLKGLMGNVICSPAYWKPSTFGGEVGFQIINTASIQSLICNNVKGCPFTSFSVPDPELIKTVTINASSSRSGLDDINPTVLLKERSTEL

[2] = target: T2, Fatty-acid amide hydrolase 1 (Mus musculus) (UniProt O08914); assay: Inhibition of TAMRA-FP-labeled FAAH in mouse brain membrane at 1 uM after 1 hr by fluorescent gel scanning assay; format: cell membranes
T2 sequence (whole entry): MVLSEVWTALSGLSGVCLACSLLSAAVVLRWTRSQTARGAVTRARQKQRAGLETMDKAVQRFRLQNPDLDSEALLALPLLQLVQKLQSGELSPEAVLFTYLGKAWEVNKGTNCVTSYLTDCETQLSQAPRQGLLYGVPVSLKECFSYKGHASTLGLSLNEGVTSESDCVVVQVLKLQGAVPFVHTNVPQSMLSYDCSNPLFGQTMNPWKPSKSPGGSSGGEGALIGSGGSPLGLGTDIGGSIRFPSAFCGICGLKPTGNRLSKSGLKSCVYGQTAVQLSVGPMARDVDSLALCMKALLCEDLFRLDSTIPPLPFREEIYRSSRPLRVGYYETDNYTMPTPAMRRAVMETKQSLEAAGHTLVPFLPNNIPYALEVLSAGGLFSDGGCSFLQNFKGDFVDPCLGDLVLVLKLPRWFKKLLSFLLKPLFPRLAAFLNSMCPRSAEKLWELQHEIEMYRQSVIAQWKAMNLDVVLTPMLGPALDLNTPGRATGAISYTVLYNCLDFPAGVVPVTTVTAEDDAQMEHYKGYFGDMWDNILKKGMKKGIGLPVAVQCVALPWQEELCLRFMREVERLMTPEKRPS

Homo sapiens = organism: Homo sapiens; assay: Selectivity ratio for human recombinant FAAH over human recombinant COX-2
[3] = target: T3, Monoacylglycerol lipase ABHD6 (Homo sapiens) (UniProt Q9BV23); assay: Inhibition of human ABHD6 overexpressed in HEK293 cells assessed as 2-AG hydrolysis at 1 uM by fluorescent glycerol assay; format: cell-based
T3 sequence (whole entry): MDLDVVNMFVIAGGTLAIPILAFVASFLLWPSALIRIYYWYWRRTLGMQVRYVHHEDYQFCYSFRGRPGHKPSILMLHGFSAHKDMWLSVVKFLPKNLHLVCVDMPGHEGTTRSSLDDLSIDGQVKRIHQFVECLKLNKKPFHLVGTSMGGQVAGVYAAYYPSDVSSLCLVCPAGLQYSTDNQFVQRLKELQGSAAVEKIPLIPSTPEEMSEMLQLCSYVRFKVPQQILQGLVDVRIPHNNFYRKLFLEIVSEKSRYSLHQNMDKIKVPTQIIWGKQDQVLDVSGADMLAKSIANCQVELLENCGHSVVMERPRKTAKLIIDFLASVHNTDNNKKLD

[4] = target: T4, Lysophosphatidylserine lipase ABHD12 (Mus musculus) (UniProt Q99LR1); assay: Inhibition of TAMRA-FP-labeled ABHD12 in mouse brain membrane at 10 uM after 1 hr by fluorescent gel scanning assay; format: cell membranes
T4 sequence (whole entry): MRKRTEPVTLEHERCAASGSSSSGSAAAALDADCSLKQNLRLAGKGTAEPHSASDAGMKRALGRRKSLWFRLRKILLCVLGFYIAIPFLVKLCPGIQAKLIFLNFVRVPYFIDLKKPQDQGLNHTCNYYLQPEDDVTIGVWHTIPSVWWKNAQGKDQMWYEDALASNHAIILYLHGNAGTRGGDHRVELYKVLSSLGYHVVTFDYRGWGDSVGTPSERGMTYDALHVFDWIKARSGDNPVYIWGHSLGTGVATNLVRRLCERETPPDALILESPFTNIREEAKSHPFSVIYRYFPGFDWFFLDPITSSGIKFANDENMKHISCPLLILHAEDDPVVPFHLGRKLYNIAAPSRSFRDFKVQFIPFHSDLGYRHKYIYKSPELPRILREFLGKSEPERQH

[5] = target: Cannabinoid receptor 2 (Homo sapiens) (UniProt P34972); assay: Agonist activity at human CB2 receptor expressed in CHO cell membranes up to 10 uM incubated for 10 mins prior to testing by [35S]GTPgammaS binding assay; format: functional
Sequence of Cannabinoid receptor 2 (Homo sapiens) (P34972 whole entry): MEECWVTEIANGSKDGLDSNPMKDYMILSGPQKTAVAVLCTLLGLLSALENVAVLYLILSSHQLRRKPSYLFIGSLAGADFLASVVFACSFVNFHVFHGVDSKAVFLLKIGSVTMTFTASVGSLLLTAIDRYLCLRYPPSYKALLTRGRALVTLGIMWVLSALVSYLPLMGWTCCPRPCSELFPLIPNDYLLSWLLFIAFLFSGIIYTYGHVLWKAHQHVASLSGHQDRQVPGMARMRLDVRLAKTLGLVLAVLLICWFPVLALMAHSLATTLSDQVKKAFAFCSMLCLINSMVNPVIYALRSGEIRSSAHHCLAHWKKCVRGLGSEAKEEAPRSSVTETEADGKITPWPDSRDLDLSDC

[6] = target: Cannabinoid receptor 1 (Rattus norvegicus) (UniProt P20272); assay: Agonist activity at CB1 receptor in rat cerebellar membranes up to 10 uM incubated for 10 mins prior to testing by [35S]GTPgammaS binding assay; format: functional, cell membranes; conditions: Cerebellum, Membrane
Sequence of Cannabinoid receptor 1 (Rattus norvegicus) (P20272 whole entry): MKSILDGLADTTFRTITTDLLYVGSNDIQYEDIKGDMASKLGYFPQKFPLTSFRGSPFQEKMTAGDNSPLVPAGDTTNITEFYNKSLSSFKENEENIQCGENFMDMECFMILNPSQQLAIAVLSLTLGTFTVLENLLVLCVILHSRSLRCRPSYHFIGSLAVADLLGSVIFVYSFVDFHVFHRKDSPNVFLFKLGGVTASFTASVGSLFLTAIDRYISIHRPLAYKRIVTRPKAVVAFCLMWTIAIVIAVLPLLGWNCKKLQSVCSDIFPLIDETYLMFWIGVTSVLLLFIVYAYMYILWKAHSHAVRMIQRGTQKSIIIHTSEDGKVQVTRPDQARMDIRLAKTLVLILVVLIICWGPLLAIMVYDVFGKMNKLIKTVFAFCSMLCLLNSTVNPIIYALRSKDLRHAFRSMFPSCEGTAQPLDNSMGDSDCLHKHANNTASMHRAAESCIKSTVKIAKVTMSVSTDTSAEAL

[7] = target: T1, Prostaglandin G/H synthase 2 (Homo sapiens); assay: Inhibition of human recombinant COX-2 using arachidonic acid as substrate assessed as oxygen consumption at 10 uM measured within 10 to 50 secs relative to control
[8] = target: T5, Lysophosphatidylserine lipase ABHD12 (Homo sapiens) (UniProt Q8N2K0); assay: Inhibition of human ABHD12 overexpressed in HEK293 cells assessed as 2-AG hydrolysis at 1 uM by fluorescent glycerol assay; format: cell-based
T5 sequence (whole entry): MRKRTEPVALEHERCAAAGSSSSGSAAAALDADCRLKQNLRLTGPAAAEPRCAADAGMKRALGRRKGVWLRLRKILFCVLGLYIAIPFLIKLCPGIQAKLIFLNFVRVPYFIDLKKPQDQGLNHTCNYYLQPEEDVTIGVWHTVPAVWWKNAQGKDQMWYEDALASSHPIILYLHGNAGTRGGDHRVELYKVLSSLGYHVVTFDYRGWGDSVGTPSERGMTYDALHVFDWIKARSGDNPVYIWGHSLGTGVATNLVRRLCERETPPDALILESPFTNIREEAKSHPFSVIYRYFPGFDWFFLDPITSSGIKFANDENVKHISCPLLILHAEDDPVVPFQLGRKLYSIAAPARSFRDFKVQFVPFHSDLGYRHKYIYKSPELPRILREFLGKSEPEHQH

[9] = target: T1, Prostaglandin G/H synthase 2 (Homo sapiens); assay: Inhibition of human recombinant COX-2 assessed as inhibition of 2-AG cyclooxygenation at 30 uM measured within 10 to 50 secs relative to control

inhibition [1]: 30%
inhibition [2]: Active
Selectivity ratio (Homo sapiens): > 900
inhibition [3]: inactive
inhibition [4]: inactive
Activity [5]: inactive
Activity [6]: inactive
inhibition [7]: 20%
inhibition [8]: inactive
inhibition [9]: 20%
Structure (SMILES): COc1nn([C@@H](C)c2ccc(CC(C)C)cc2)c(=O)o1
